The results in this text go back to ChEMBL document CHEMBL1153932, “Hybrid alpha-bromoacryloylamido chalcones. Design, synthesis and biological evaluation” (Bioorg Med Chem Lett, 2009).

One assay has as its system HeLa. As to the kind of experiment: Antiproliferative activity against human HeLa cells after 48 hrs by Coulter counting analysis. The format is functional, cell-based.
The next assay relates to CCRF-CEM. As to the kind of experiment: Antiproliferative activity against human CEM cells after 48 hrs by Coulter counting analysis. The format is cell-based.
Another assay deals with FM3A. As to the kind of experiment: Antiproliferative activity against mouse FM3A cells after 48 hrs by Coulter counting analysis. The format is functional, cell-based.
For another assay, the system named is L1210. Description: Antiproliferative activity against mouse L1210 cells after 48 hrs by Coulter counting analysis. The format is functional, cell-based. As to conditions: L1210, 48 h.
Another assay deals with MOLT-4. As to the kind of experiment: Antiproliferative activity against human MOLT4 cells after 48 hrs by Coulter counting analysis. Conditions: MOLT-4, 48 h. The format is functional, cell-based.

As for `Nc1ccc(/C=C/C(=O)c2ccc(Cl)cc2)cc1`, the IC50 in the assay with HeLa is 43 µM; in the assay on CCRF-CEM it was 21 µM; in the assay with FM3A it was 178 µM; with L1210, 111 µM; with MOLT-4, 7.8 µM.

`COc1cc(/C=C/C(=O)c2ccc(N)cc2)cc(OC)c1OC`: the IC50 in the assay with HeLa came out at 6.9 µM; with CCRF-CEM, 2.3 µM; in the assay with FM3A it was 8.8 µM; with L1210, 7.8 µM; with MOLT-4 it was 5.6 µM.

For the molecule `C=C(Br)C(=O)Nc1ccc(/C=C/C(=O)c2ccc(C)cc2)cc1`, the IC50 is 2.1 µM in the assay with HeLa; 1.8 µM in the assay on CCRF-CEM; 2.1 µM in the assay on FM3A; 1.9 µM with L1210; 1.7 µM in the assay on MOLT-4.

Turning to `COc1cccc(/C=C/C(=O)c2ccc(N)cc2)c1`, the IC50 with HeLa was determined as 19 µM; in the assay on CCRF-CEM, 23 µM; in the assay with FM3A, 45 µM; in the assay on L1210, 22 µM; with MOLT-4, 21 µM.

With `Nc1ccc(/C=C/C(=O)c2cccs2)cc1`, the IC50 with HeLa amounted to 15 µM; in the assay with CCRF-CEM, 27 µM; with FM3A, 123 µM; in the assay with L1210, 87 µM; with MOLT-4, 13 µM.

For the molecule `COc1cc(/C=C/C(=O)c2ccc(N)cc2)cc(OC)c1`, the IC50 in the assay with HeLa turned out to be 7.9 µM; with CCRF-CEM, 5.7 µM; in the assay with FM3A, 12 µM; in the assay on L1210, 6 µM; in the assay with MOLT-4, 7.5 µM.

As to `C=C(Br)C(=O)Nc1ccc(/C=C/C(=O)c2ccc(Cl)cc2)cc1`, the IC50 in the assay with HeLa came out at 1.6 µM; with CCRF-CEM, 0.95 µM; in the assay with FM3A, 1.3 µM; in the assay on L1210, 1.1 µM; in the assay on MOLT-4, 0.81 µM.

For `C=C(Br)C(=O)Nc1ccc(/C=C/C(=O)c2ccccc2)cc1`, the IC50 with HeLa is 3.9 µM; in the assay with CCRF-CEM it was 4 µM; with FM3A, 3.9 µM; in the assay on L1210 it was 5 µM; in the assay with MOLT-4, 3.1 µM.

Take `CN(C)c1ccc(/C=C/C(=O)c2ccc(N)cc2)cc1`: the IC50 with HeLa came to 28 µM; in the assay with CCRF-CEM, 20 µM; with FM3A, 96 µM; with L1210 it was 67 µM; with MOLT-4, 9.9 µM.

For `C=C(Br)C(=O)Nc1ccc(C(=O)/C=C/c2ccc(OC)c(OC)c2)cc1`, the IC50 in the assay on HeLa came out at 0.77 µM; in the assay on CCRF-CEM, 1.6 µM; in the assay with FM3A, 1.2 µM; with L1210, 1.3 µM; in the assay with MOLT-4 it was 1.8 µM.

`C=C(Br)C(=O)O`: in the assay with L1210, the IC50 is above 120 µM.

Consider `C=C(Br)C(=O)Nc1ccc(C(=O)/C=C/c2cc(OC)cc(OC)c2)cc1`, for which the IC50 in the assay with HeLa stood at 1.7 µM; with CCRF-CEM it was 2.2 µM; in the assay with FM3A it was 2 µM; in the assay on L1210 it was 2.7 µM; in the assay with MOLT-4 it was 1.5 µM.

Consider `COc1ccc(/C=C/C(=O)c2ccc(N)cc2)c(OC)c1OC`, for which the half-maximal inhibitory concentration (IC50) is 8.2 µM in the assay with HeLa; 9.7 µM with CCRF-CEM; 29 µM in the assay on FM3A; 25 µM with L1210; 10 µM with MOLT-4.

In the case of `C=C(Br)C(=O)Nc1ccc(/C=C/C(=O)c2ccc(OC)cc2)cc1`, the IC50 amounted to 1.4 µM in the assay with HeLa; 1.4 µM in the assay on CCRF-CEM; 1.2 µM in the assay on FM3A; 0.98 µM with L1210; 1.3 µM with MOLT-4.

As to `COc1ccc(C(=O)/C=C/c2ccc(N)cc2)cc1`, the IC50 in the assay with HeLa was 98 µM; in the assay with CCRF-CEM, 37 µM; in the assay with FM3A, 282 µM; in the assay on L1210, 160 µM; in the assay on MOLT-4 it was 19 µM.

For `Nc1ccc(/C=C/C(=O)c2ccc(F)cc2)cc1`, the IC50 amounted to 40 µM in the assay with HeLa; 39 µM in the assay with CCRF-CEM; 185 µM in the assay with FM3A; 123 µM with L1210; 12 µM in the assay with MOLT-4.

For the molecule `Nc1ccc(/C=C/C(=O)c2ccc(Br)cc2)cc1`, the 50% inhibitory concentration (IC50) was found to be 49 µM in the assay on HeLa; 14 µM in the assay on CCRF-CEM; 120 µM with FM3A; 90 µM in the assay on L1210; 10 µM in the assay on MOLT-4.

With `COc1cc(C(=O)/C=C/c2ccc(N)cc2)cc(OC)c1OC`, the IC50 in the assay on HeLa was found to be 1.9 µM; with CCRF-CEM, 2.5 µM; with FM3A, 36 µM; with L1210 it was 14 µM; in the assay with MOLT-4 it was 1.5 µM.

As to `C=C(Br)C(=O)Nc1ccc(/C=C/C(=O)c2ccc(I)cc2)cc1`, the IC50 with HeLa turned out to be 7.7 µM; with CCRF-CEM it was 4 µM; with FM3A, 8.3 µM; with L1210 it was 3.4 µM; in the assay with MOLT-4, 2.8 µM.

As to `COc1ccc(/C=C/C(=O)c2ccc(N)cc2)cc1OC`, the IC50 in the assay on HeLa worked out at 7.8 µM; in the assay with CCRF-CEM, 9.3 µM; with FM3A it was 35 µM; in the assay with L1210 it was 25 µM; with MOLT-4, 8.6 µM.

`C=C(Br)C(=O)Nc1ccc(/C=C/C(=O)c2cccc3ccccc23)cc1`: the IC50 in the assay with HeLa came to 2 µM; with CCRF-CEM it was 3.1 µM; with FM3A, 2.4 µM; in the assay on L1210, 1.1 µM; in the assay with MOLT-4, 2.1 µM.

On to `C=C(Br)C(=O)Nc1ccc(/C=C/C(=O)c2ccc(Cl)c(Cl)c2)cc1`, for which the IC50 in the assay on HeLa was 3.2 µM; in the assay on CCRF-CEM, 1.7 µM; in the assay with FM3A, 3.2 µM; in the assay on L1210 it was 2.1 µM; with MOLT-4 it was 1.8 µM.

For the molecule `COc1cccc(C(=O)/C=C/c2ccc(N)cc2)c1`, the IC50 turned out to be 33 µM in the assay on HeLa; 26 µM with CCRF-CEM; 43 µM in the assay on FM3A; 38 µM in the assay with L1210; 20 µM with MOLT-4.

For the molecule `C=C(Br)C(=O)Nc1ccc(/C=C/C(=O)c2cc(OC)c(OC)c(OC)c2)cc1`, the IC50 with HeLa came out at 1.1 µM; in the assay with CCRF-CEM, 1.1 µM; with FM3A, 0.95 µM; in the assay with L1210, 0.91 µM; in the assay on MOLT-4 it was 0.85 µM.

Regarding `Nc1ccc(/C=C/C(=O)c2cccc3ccccc23)cc1`, the IC50 in the assay on HeLa came out at 18 µM; in the assay with CCRF-CEM it was 22 µM; in the assay on FM3A, 41 µM; in the assay with L1210, 32 µM; with MOLT-4 it was 12 µM.

As to `Nc1ccc(/C=C/C(=O)c2ccc(Cl)c(Cl)c2)cc1`, the half-inhibitory concentration (IC50) in the assay with HeLa was determined as 31 µM; in the assay with CCRF-CEM, 15 µM; in the assay with FM3A, 33 µM; in the assay on L1210, 26 µM; in the assay with MOLT-4, 13 µM.

For `CCOc1ccc(C(=O)/C=C/c2ccc(N)cc2)cc1`, the IC50 with HeLa stood at 41 µM; in the assay with CCRF-CEM, 15 µM; in the assay on FM3A it was 55 µM; in the assay on L1210 it was 21 µM; with MOLT-4 it was 11 µM.

As to `C=C(Br)C(=O)Nc1ccc(C(=O)/C=C/c2cccc(OC)c2)cc1`, the IC50 amounted to 0.5 µM with HeLa; 1.8 µM with CCRF-CEM; 1.8 µM with FM3A; 1.1 µM with L1210; 1.1 µM in the assay with MOLT-4.

In the case of `Nc1ccc(/C=C/C(=O)c2ccc(I)cc2)cc1`, the 50% inhibitory concentration (IC50) is 58 µM with HeLa; 16 µM in the assay on CCRF-CEM; 110 µM in the assay on FM3A; 50 µM in the assay on L1210; 7.5 µM in the assay with MOLT-4.

As to `C=C(Br)C(=O)Nc1ccc(C(=O)/C=C/c2cc(OC)c(OC)c(OC)c2)cc1`, the IC50 in the assay on HeLa is 0.42 µM; in the assay on CCRF-CEM, 0.33 µM; with FM3A, 1.8 µM; in the assay with L1210, 1.5 µM; with MOLT-4, 0.28 µM.

Turning to `COc1ccc(/C=C/C(=O)c2ccc(N)cc2)c(OC)c1`, the IC50 amounted to 22 µM in the assay on HeLa; 18 µM in the assay with CCRF-CEM; 43 µM in the assay with FM3A; 34 µM in the assay with L1210; 20 µM in the assay on MOLT-4.

For `C=C(Br)C(=O)Nc1ccc(/C=C/C(=O)c2cccc(OC)c2)cc1`, the concentration for half-maximal inhibition (IC50) in the assay on HeLa was 0.7 µM; with CCRF-CEM it was 2.3 µM; in the assay on FM3A it was 2.7 µM; with L1210, 2.1 µM; in the assay on MOLT-4 it was 0.85 µM.

Take `Cc1ccc(C(=O)/C=C/c2ccc(N)cc2)cc1`: the IC50 in the assay on HeLa came to 40 µM; with CCRF-CEM, 31 µM; in the assay with FM3A, 107 µM; with L1210, 49 µM; in the assay with MOLT-4 it was 12 µM.

On to `C=C(Br)C(=O)Nc1ccc(C(=O)/C=C/c2ccc(OC)cc2OC)cc1`, for which the IC50 with HeLa came out at 1.1 µM; with CCRF-CEM, 1.1 µM; with FM3A, 1.2 µM; in the assay with L1210, 0.52 µM; in the assay with MOLT-4, 1.5 µM.

`C=C(Br)C(=O)Nc1ccc(/C=C/C(=O)c2ccc(F)cc2)cc1`: the IC50 in the assay on HeLa was 1.4 µM; in the assay with CCRF-CEM it was 1.1 µM; with FM3A, 1.2 µM; with L1210, 1.6 µM; in the assay with MOLT-4, 0.66 µM.

`COc1ccc(/C=C/C(=O)c2ccc(N)cc2)cc1`: the IC50 in the assay on HeLa worked out at 8.7 µM; in the assay on CCRF-CEM, 14 µM; in the assay on FM3A, 35 µM; in the assay on L1210, 18 µM; with MOLT-4, 8.6 µM.

On to `Nc1ccc(C(=O)/C=C/c2ccccc2)cc1`, for which the half-inhibitory concentration (IC50) in the assay with HeLa worked out at 7.7 µM; in the assay on CCRF-CEM, 8.5 µM; with FM3A it was 34 µM; in the assay on L1210, 14 µM; in the assay on MOLT-4 it was 7.9 µM.

As for `Nc1ccc(/C=C/C(=O)c2ccccc2)cc1`, the concentration for half-maximal inhibition (IC50) was found to be 36 µM in the assay on HeLa; 34 µM in the assay on CCRF-CEM; 146 µM in the assay on FM3A; 88 µM with L1210; 10 µM in the assay on MOLT-4.

As a reminder, the IC50 is the midpoint of a concentration-inhibition curve. A high value points to lower potency.
